Reference: ChEMBL document CHEMBL4028849 (J Med Chem, 2017)

test: n-Octanol-water partition co-efficient, log P of the compound at 1 mg/ml by HPLC analysis; format: physicochemical; conditions: not given

Structure (SMILES) | logP
COc1ccc2c(c1)NC(=O)CN2c1nc(Cl)nc2ccccc12 | 2.94
COc1ccc2c(c1)NC(=O)CN2c1nc(CO)nc2ccccc12 | 2.14
COc1ccc2c(c1)NC(=O)CN2c1nc(N2CC(F)(F)C2)nc2ccccc12 | 2.14
COc1ccc2c(c1)NC(=O)CN2c1nc(COC(C)=O)nc2ccccc12 | 2.7
COc1ccc2c(c1)NC(=O)CN2c1nc(NC2CC2)nc2ccccc12 | 2.26
COc1ccc2c(c1)NC(=O)CN2c1nc(NC2CCCC2)nc2ccccc12 | 2.33
COc1ccc2c(c1)NC(=O)CN2c1nc(N2CCC(F)(F)C2)nc2ccccc12 | 2.48

Continued, values first:

logP | Structure (SMILES)
2.56 | CCNc1nc(N2CC(=O)Nc3cc(OC)ccc32)c2ccccc2n1
2.77 | CNc1nc(N2CC(=O)Nc3cc(OC)ccc32)c2ccccc2n1
3.91 | CCCCNc1nc(N2CC(=O)Nc3cc(OC)ccc32)c2ccccc2n1
2.6 | COc1ccc2c(c1)NC(=O)CN2c1nc(NCCCO)nc2ccccc12

test: Terminal half life in Sprague-Dawley rat at 1 mg/kg, iv; format: ADME, organism-based; conditions: in vivo, read-out: beta t1/2 (converted)

Structure (SMILES) | half-life [h]
COc1ccc2c(c1)NC(=O)CN2c1nc(C)nc2ccccc12 | 52
